We go through nine compounds from ChEMBL document CHEMBL3991601, “The target landscape of clinical kinase drugs” (Science, 2017).

What is called Kd is a measure of binding affinity in units of concentration.

Active and inactive are the calls of the source. Cut-off read from the data, not from the text of the source, for most assays here: actives have a measured Kd and inactives only a lower limit.

Targets include Midasin (Homo sapiens, UniProt Q9NU22); Aurora kinase B (Homo sapiens, UniProt Q96GD4); TGF-beta receptor type-2 (Homo sapiens, UniProt P37173).
Test [1] addresses MAP kinase-activated protein kinase 2 (Homo sapiens, UniProt P49137).
Test [2] addresses MAP/microtubule affinity-regulating kinase 3 (Homo sapiens, UniProt P27448).
The target of test [3] is cAMP-dependent protein kinase catalytic subunit gamma (Homo sapiens, UniProt P22612).
Chain of cAMP-dependent protein kinase catalytic subunit gamma (P22612 whole entry): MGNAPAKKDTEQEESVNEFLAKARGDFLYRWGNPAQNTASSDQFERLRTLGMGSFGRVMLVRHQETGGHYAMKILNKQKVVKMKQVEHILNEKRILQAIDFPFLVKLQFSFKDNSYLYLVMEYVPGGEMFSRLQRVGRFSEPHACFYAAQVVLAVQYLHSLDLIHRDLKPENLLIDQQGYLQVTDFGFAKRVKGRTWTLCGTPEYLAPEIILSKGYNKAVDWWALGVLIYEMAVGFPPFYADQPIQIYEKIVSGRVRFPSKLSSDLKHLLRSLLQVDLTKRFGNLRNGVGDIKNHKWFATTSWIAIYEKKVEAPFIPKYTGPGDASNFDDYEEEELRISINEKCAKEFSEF
Test [4] addresses Glycogen synthase kinase-3 beta (Homo sapiens, UniProt P49841).
Test [5] addresses Ribosomal protein S6 kinase alpha-1 (Homo sapiens, UniProt Q15418).
For another test, the target named is T1, Activin receptor type-1B (Homo sapiens, UniProt P36896).
T1 sequence (P36896 whole entry): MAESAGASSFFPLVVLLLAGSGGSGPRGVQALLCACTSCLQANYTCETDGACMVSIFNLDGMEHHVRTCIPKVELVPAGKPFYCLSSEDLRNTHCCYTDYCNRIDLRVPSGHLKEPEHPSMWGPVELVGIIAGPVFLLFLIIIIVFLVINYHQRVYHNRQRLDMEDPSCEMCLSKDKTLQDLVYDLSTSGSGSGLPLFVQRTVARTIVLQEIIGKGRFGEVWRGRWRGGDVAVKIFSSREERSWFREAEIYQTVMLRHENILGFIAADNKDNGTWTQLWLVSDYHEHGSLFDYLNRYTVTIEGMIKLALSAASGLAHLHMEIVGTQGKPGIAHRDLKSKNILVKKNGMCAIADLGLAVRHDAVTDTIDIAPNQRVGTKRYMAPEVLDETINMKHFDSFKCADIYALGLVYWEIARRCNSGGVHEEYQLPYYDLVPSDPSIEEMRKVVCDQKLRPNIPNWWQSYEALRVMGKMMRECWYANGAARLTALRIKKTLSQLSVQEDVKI

Test [6] addresses Mitogen-activated protein kinase 3 (Homo sapiens, UniProt P27361).
Test [7] deals with cAMP-dependent protein kinase catalytic subunit beta (Homo sapiens, UniProt P22694).
Test [8] has as its target Tyrosine-protein kinase HCK (Homo sapiens, UniProt P08631).
In another test the target is T2, Activin receptor type-1 (Homo sapiens, UniProt Q04771).
T2 sequence (Q04771 whole entry): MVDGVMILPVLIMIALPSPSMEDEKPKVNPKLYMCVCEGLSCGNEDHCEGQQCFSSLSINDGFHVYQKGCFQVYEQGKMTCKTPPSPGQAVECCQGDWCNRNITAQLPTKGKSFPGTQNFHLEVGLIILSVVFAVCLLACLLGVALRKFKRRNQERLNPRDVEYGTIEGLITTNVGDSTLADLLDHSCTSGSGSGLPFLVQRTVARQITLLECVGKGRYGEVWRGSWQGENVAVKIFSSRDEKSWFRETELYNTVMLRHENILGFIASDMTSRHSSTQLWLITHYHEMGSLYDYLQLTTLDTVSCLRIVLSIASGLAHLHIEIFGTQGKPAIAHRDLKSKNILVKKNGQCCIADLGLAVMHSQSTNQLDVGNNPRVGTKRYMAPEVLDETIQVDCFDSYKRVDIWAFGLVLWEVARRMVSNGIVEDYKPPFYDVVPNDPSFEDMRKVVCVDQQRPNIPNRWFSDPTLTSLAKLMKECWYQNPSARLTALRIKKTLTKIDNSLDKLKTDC

The target of test [9] is T3, Peroxisomal acyl-coenzyme A oxidase 1 (Homo sapiens, UniProt Q15067).
T3 sequence (Q15067 whole entry): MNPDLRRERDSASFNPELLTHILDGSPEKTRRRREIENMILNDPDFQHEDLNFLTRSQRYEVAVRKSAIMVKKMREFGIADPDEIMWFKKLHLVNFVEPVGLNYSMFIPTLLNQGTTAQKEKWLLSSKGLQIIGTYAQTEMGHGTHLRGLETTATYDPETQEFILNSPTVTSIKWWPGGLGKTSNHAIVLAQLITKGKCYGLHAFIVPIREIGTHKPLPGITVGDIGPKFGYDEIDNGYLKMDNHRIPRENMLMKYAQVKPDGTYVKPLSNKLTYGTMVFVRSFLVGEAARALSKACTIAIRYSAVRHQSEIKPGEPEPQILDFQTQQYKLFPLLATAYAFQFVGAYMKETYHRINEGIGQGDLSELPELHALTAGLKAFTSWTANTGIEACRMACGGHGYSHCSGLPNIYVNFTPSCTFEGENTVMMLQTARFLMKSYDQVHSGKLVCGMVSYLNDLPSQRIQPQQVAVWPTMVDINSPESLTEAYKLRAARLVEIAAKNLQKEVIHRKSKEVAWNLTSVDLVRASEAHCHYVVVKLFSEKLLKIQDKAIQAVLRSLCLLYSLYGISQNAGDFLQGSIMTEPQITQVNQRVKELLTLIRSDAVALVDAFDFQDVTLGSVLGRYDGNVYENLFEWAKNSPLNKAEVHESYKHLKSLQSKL
Note: in the data inactive means no Kd found up to 30 µM.

Chain of Aurora kinase B (Q96GD4 whole entry): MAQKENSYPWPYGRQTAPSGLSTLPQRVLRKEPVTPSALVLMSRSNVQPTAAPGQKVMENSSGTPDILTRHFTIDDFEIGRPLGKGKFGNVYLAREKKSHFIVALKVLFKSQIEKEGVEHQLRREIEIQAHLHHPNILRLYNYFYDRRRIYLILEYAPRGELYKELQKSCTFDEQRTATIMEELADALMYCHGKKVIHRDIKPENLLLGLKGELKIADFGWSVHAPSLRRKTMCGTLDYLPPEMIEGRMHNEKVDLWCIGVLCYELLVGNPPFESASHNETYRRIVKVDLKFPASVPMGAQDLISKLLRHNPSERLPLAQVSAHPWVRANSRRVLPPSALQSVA
Chain of Tyrosine-protein kinase HCK (P08631 whole entry): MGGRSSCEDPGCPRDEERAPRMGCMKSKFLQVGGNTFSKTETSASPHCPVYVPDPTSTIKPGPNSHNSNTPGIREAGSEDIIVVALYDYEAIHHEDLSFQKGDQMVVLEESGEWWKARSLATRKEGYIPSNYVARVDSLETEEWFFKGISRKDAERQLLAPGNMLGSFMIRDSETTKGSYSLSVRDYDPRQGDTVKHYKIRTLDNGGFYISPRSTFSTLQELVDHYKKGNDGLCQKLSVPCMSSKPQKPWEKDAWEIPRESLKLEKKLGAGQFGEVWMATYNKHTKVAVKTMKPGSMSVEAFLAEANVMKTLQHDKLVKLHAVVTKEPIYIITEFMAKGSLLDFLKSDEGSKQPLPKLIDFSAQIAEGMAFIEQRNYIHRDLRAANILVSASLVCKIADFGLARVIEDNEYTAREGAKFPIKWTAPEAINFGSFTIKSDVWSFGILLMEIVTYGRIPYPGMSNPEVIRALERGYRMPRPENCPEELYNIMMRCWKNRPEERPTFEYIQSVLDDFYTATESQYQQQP
Chain of Glycogen synthase kinase-3 beta (P49841 whole entry): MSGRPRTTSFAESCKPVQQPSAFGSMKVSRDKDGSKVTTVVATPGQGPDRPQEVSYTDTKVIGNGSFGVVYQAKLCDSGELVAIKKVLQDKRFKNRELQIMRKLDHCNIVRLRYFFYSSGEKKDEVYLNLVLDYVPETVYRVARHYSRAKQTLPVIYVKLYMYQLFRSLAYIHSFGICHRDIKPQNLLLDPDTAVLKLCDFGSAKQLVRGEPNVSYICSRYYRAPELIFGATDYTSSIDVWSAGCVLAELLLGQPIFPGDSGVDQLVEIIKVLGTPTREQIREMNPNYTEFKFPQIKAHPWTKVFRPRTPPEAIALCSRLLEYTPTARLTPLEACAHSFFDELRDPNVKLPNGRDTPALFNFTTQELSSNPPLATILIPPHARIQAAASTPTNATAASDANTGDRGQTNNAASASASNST
Chain of Ribosomal protein S6 kinase alpha-1 (Q15418 whole entry): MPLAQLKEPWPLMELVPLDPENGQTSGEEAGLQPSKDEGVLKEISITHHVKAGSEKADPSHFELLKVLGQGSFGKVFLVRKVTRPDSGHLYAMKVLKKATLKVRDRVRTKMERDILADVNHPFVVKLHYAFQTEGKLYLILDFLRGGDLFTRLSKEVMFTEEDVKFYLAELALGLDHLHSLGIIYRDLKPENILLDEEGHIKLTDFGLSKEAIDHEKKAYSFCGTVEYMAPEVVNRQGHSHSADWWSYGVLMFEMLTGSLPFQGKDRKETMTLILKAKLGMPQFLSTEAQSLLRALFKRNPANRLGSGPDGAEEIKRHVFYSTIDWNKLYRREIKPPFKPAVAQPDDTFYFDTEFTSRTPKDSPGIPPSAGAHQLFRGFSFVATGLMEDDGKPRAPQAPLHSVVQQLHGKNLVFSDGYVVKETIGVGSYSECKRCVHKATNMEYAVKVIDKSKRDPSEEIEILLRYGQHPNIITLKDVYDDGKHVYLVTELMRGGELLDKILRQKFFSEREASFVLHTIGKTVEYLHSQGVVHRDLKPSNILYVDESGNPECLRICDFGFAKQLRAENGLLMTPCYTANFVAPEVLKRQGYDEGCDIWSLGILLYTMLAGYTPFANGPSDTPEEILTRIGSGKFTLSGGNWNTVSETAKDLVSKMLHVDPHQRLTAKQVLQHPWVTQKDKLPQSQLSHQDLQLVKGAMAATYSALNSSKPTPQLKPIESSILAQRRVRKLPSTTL
Chain of TGF-beta receptor type-2 (P37173 whole entry): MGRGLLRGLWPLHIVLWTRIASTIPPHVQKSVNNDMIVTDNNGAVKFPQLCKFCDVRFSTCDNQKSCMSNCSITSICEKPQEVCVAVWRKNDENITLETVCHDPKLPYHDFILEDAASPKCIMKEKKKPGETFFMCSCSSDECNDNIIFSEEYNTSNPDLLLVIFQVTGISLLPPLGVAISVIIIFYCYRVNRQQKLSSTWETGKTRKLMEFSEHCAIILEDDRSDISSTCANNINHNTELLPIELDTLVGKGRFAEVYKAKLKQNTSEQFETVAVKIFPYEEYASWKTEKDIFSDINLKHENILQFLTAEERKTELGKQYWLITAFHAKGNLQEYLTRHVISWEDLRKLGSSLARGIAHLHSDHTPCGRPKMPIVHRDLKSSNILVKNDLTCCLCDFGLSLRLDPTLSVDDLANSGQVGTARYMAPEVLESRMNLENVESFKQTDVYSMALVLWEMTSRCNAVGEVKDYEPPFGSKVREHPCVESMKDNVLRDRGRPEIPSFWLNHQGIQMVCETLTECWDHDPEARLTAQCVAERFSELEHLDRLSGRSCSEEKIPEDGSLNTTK
Chain of Mitogen-activated protein kinase 3 (P27361 whole entry): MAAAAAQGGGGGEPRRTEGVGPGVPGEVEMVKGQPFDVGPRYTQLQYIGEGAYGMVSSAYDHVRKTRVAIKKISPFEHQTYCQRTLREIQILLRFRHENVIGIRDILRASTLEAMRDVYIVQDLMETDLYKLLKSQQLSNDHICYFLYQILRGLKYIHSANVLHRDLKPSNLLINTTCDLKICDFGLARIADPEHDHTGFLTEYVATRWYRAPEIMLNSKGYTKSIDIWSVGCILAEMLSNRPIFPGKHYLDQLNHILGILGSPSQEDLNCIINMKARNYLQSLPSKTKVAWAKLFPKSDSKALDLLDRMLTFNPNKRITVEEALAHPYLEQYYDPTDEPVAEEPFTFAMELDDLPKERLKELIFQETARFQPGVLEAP
Chain of MAP/microtubule affinity-regulating kinase 3 (P27448 whole entry): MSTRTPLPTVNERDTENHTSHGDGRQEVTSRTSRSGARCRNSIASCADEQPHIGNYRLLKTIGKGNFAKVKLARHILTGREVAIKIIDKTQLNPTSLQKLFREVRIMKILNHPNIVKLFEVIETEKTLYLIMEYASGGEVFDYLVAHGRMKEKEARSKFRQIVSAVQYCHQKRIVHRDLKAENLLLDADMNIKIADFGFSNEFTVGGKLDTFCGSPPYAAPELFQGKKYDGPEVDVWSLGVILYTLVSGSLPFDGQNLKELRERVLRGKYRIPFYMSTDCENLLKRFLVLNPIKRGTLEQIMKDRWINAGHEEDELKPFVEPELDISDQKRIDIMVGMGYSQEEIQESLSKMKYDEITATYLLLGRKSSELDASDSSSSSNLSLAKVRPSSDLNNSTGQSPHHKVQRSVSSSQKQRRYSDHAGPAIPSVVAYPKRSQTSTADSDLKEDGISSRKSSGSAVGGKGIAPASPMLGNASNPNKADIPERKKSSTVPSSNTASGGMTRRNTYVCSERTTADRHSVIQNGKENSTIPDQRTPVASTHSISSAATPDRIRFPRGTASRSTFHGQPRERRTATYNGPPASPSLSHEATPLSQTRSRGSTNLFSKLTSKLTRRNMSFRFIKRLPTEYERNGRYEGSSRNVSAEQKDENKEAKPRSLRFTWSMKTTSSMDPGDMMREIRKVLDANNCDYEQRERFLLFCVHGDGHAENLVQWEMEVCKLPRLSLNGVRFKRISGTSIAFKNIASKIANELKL
Chain of MAP kinase-activated protein kinase 2 (P49137 whole entry): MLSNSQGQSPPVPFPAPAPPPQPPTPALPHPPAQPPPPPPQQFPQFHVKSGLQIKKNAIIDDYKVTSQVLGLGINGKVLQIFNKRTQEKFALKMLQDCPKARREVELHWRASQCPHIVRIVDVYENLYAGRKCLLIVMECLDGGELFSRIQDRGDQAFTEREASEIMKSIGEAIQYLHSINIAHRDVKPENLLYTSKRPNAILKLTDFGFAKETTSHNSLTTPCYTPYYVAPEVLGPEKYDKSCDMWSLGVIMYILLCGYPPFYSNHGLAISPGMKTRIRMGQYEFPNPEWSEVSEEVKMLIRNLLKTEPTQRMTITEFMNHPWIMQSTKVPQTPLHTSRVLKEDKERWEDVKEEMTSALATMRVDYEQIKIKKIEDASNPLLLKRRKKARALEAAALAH

Regarding `CC(=O)Nc1cccc(-n2c(=O)n(C3CC3)c(=O)c3c(Nc4ccc(I)cc4F)n(C)c(=O)c(C)c32)c1` [TRAMETINIB], the Kd (in test [1]; in [2]; on Midasin; at Aurora kinase B; in test [3]; in test [4]) was > 30 µM (inactive) throughout. The Kd (in test [5]; on Activin receptor type-1B; in test [6]; in test [7]; in test [8]; at TGF-beta receptor type-2) was > 30 µM (inactive) throughout. The Kd (at Activin receptor type-1; in test [9]) was > 30 µM (inactive) throughout.

For the compound `COC(=O)[C@@]1(O)C[C@H]2O[C@]1(C)n1c3ccccc3c3c4c(c5c6ccccc6n2c5c31)C(=O)NC4` [K-252A], the Kd in test [1] is > 30 µM (inactive); in test [2], 0.384 µM (active); at Midasin, > 30 µM (inactive); at Aurora kinase B it was 0.353 µM (active); in test [3], > 30 µM (inactive); in [4], > 30 µM (inactive). For the same compound, the Kd in test [5] is 2.99 µM (active); at Activin receptor type-1B, 15.3 µM (active); in test [6], > 30 µM (inactive); in test [7] it was > 30 µM (inactive); in test [8] it was > 30 µM (inactive); on TGF-beta receptor type-2, > 30 µM (inactive). Moreover, the Kd (on Activin receptor type-1; in test [9]) was > 30 µM (inactive) throughout.

In the case of `Cn1cc(-c2ccc3nnc(C(F)(F)c4ccc5ncccc5c4)n3n2)cn1` [JNJ-38877605], the Kd (in test [1]; in test [2]; at Midasin; on Aurora kinase B; in test [3]; in [4]) was > 30 µM (inactive) in each case. The Kd (in test [5]; on Activin receptor type-1B; in test [6]; in test [7]; in [8]; on TGF-beta receptor type-2) was > 30 µM (inactive) throughout. The Kd (at Activin receptor type-1; in [9]) was > 30 µM (inactive) in each case.

As for `Cc1cc([C@@H](C)Nc2ccccc2C(=O)O)c2nc(N3CCOCC3)cc(=O)n2c1` [AZD-6482], the Kd (in [1]; in test [2]; on Midasin; on Aurora kinase B; in test [3]; in test [4]) was > 30 µM (inactive) each time. The Kd (in test [5]; on Activin receptor type-1B; in [6]; in test [7]; in test [8]; at TGF-beta receptor type-2) was > 30 µM (inactive) in each case. The Kd (on Activin receptor type-1; in test [9]) was > 30 µM (inactive) in each case.

On to `CN1CC[C@@H](c2c(O)cc(O)c3c(=O)cc(-c4ccccc4Cl)oc23)[C@@H]1CO`, for which the Kd in test [1] was > 30 µM (inactive); in test [2], > 30 µM (inactive); at Midasin it was > 30 µM (inactive); on Aurora kinase B, > 30 µM (inactive); in [3] it was > 30 µM (inactive); in [4], 2.72 µM (active). For the same compound, the Kd (in [5]; on Activin receptor type-1B; in test [6]; in [7]; in [8]; on TGF-beta receptor type-2) was > 30 µM (inactive) throughout. In addition, the Kd (on Activin receptor type-1; in test [9]) was > 30 µM (inactive) throughout.

For `CCN1CCN(Cc2ccc(-c3cc4c(N[C@H](C)c5ccccc5)ncnc4[nH]3)cc2)CC1` [AEE-788], the Kd (in test [1]; in [2]; at Midasin; at Aurora kinase B; in test [3]; in test [4]) was > 30 µM (inactive) throughout. Also, the Kd (in test [5]; on Activin receptor type-1B; in [6]; in test [7]; in test [8]; at TGF-beta receptor type-2) was > 30 µM (inactive) in each case. In addition, the Kd was 16.1 µM (active) on Activin receptor type-1 and > 30 µM (inactive) in [9].

Take `C[C@@H]1CN(Cc2ccc(F)cc2)[C@@H](C)CN1C(=O)c1cc2c(C(=O)C(=O)N(C)C)cn(C)c2cc1Cl` [TALMAPIMOD]: the Kd was 0.019 µM in [1]; > 30 µM (inactive) in test [2]; > 30 µM (inactive) on Midasin; > 30 µM (inactive) on Aurora kinase B; > 30 µM (inactive) in test [3]; > 30 µM (inactive) in [4]. The Kd (in test [5]; on Activin receptor type-1B; in test [6]; in [7]; in test [8]; on TGF-beta receptor type-2) was > 30 µM (inactive) in each case. The Kd (on Activin receptor type-1; in test [9]) was > 30 µM (inactive) in each case.

With `O=C(Nc1ccc(-c2ccnc(Nc3ccc(N4CCOCC4)cc3)n2)cc1)C1CCCN1` (stereo unspecified) [XL-019], the Kd in [1] is 0.354 µM (active); in test [2], 1.61 µM (active); at Midasin it was > 30 µM (inactive); at Aurora kinase B it was > 30 µM (inactive); in test [3], > 30 µM (inactive); in [4], > 30 µM (inactive). In addition, the Kd (in [5]; at Activin receptor type-1B; in test [6]; in [7]; in [8]; on TGF-beta receptor type-2) was > 30 µM (inactive) throughout. The Kd (at Activin receptor type-1; in test [9]) was > 30 µM (inactive) throughout.

In the case of `CN1CCC(COc2cnc(-c3cccc(Cn4nc(-c5cccc(C#N)c5)ccc4=O)c3)nc2)CC1` [TEPOTINIB], the Kd (in test [1]; in [2]; at Midasin; on Aurora kinase B; in test [3]; in [4]) was > 30 µM (inactive) each time. For the same compound, the Kd (in [5]; at Activin receptor type-1B; in test [6]; in test [7]; in test [8]; on TGF-beta receptor type-2) was > 30 µM (inactive) throughout. The Kd (on Activin receptor type-1; in test [9]) was > 30 µM (inactive) each time.
